Reference: PubChem BioAssay (NCI)
“And” between values parts separate entries of the source, which are not always exact repeats. Equal values may be shown once.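 Following 48 hours of exposure in 96-well plates, responses at five concentrations were used to interpolate endpoints linearly. GI50 = concentration required for 50% inhibition of growth. TGI: concentration producing complete growth inhibition.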

Assays:
Experiment in all cases: NCI tumour cell line growth inhibition, 48 h
CCRF-CEM leukemia = test system: CCRF-CEM leukemia
LOX IMVI melanoma = test system: LOX IMVI melanoma
MOLT-4 leukemia = test system: MOLT-4 leukemia
SF-539 CNS = test system: SF-539 CNS
HL-60(TB) leukemia = test system: HL-60(TB) leukemia
NCI-H460 lung = test system: NCI-H460 lung
SR leukemia = test system: SR leukemia
BT-549 breast = test system: BT-549 breast
PC-3 prostate = test system: PC-3 prostate
MDA-MB-435 = test system: MDA-MB-435

SMILES | TGI (CCRF-CEM leukemia) [µM] | TGI (LOX IMVI melanoma) [µM] | TGI (MOLT-4 leukemia) [µM] | TGI (SF-539 CNS) | TGI (HL-60(TB) leukemia) [µM] | TGI (NCI-H460 lung) [µM] | TGI (SR leukemia) [µM] | GI50 (CCRF-CEM leukemia) [nM] | GI50 (HL-60(TB) leukemia) [µM] | GI50 (LOX IMVI melanoma) [µM] | GI50 (MOLT-4 leukemia) [nM] | GI50 (SF-539 CNS) [µM] | GI50 (SR leukemia) [µM] | GI50 (BT-549 breast) [nM] | TGI (BT-549 breast) [nM] | GI50 (NCI-H460 lung) [nM] | GI50 (PC-3 prostate) [nM] | TGI (PC-3 prostate) [µM] | GI50 (MDA-MB-435) [nM] | TGI (MDA-MB-435) [nM]
CC1=CC(/C=C(\C)CCCc2ccoc2)C2(OC(=O)C(C)=C2O)[C@H]2C1CC[C@@H]2C (stereo partly specified) | 58.6 | 59.3 | 41.3 | 36.8 µM | – | – | – | – | – | – | – | – | – | – | – | – | – | – | – | –
COC(=O)C1=C(c2ccc3c(c2)OCO3)O[C@H](c2cc(OC)c(OC)c(OC)c2)[C@H]1COC(C)=O | > 100 | 55.3 | 27.8 | 6.91 µM | 32.5 | > 100 | 70.3 | – | – | – | – | – | – | – | – | – | – | – | – | –
O=C1CN=C(C[N+](=O)[O-])c2ccccc21 | – | – | > 100 | > 100 µM | > 100 | > 100 | > 100 | – | – | – | – | – | – | – | – | – | – | – | – | –
CC(=O)O.CC(=O)O.CC(=O)O.CC(=O)O.CC(=O)O.CC(=O)O.O.[Ti].[Ti] | > 100 | > 100 | > 100 | > 100 µM | > 100 | – | > 100 | > 100000 | > 100 | > 100 | > 100000 | > 100 | > 100 | – | – | – | – | – | – | –
CC(C)(C)OC(=O)NCC(=O)OCc1ccccc1 | > 100 | > 100 | > 100 | > 100 µM | > 100 | > 100 | – | – | – | – | – | – | – | – | – | – | – | – | – | –
Ic1ccc(Nc2nc3nonc3nc2Nc2ccc(I)cc2)cc1 | > 100 | – | 1.06 | – | 0.545 | > 32 | – | 145 | 0.175 | – | 256 | – | – | 301 | 1360 | 156 | 186 | > 100 | – | –
CC(O)C(N=Cc1ccccc1[O-])C(=O)[O-].CC(O)C(N=Cc1ccccc1[O-])C(=O)[O-].[Co+2] (stereo unspecified) | > 100 | > 100 | > 100 | > 100 µM | > 100 | – | > 100 | 20100 | 39.1 | > 100 | 19000 | > 100 | 39.7 | – | – | – | – | – | – | –
O=[n+]1c2c(n([O-])c3ccccc31)CCCCCCCCCC2 | > 100 | > 100 | > 100 | > 100 µM | > 100 | – | > 100 | – | – | – | – | – | – | – | – | – | – | – | – | –
COc1ccc(NC(=O)CCc2cc(-c3ccc(O)c(OC)c3)nc(NC#N)n2)cc1 | > 100 | > 100 | > 100 | > 100 µM | > 100 | > 100 | > 100 | – | – | – | – | – | – | – | – | – | – | – | – | –
O=C(Nc1nc2ncn(CCI)c2c(=O)[nH]1)c1ccccc1 | > 100 | > 100 | > 100 | > 64.6 µM | > 100 | > 100 | > 100 | – | – | – | – | – | – | – | – | – | – | – | – | –
COC(=O)c1cc2c(cc1O)[C@@H](NC(C)=O)CCc1cc(OC)c(OC)c(OC)c1-2 | > 100 | > 100 | 81.8 | 76.6 µM | – | > 100 | > 100 | 39.8 | – | – | 47.2 | – | < 0.01 | – | – | 29.6 | 15 | > 100 | < 10 | 1230
CCOC(=O)Oc1c(OC)cc(C(=O)NC2CCc3cc(OC)c(OC)c(OC)c3-c3ccc(SC)c(=O)cc32)cc1OC (stereo unspecified) | – | – | > 70 | 0.057 µM and 0.00743 µM | – | – | < 0.007 | – | – | – | < 7 | < 0.007 | – | – | – | 16 | – | – | – | –
CNC(=S)NC1CCCCC1NC(=S)NC (stereo unspecified) | > 100 | > 100 | > 100 | > 100 µM | > 100 | > 100 | > 100 | – | – | – | – | – | – | – | – | – | – | – | – | –
Cc1cc(Br)cc(C)c1NC(=O)C(=O)C(C(=O)c1ccc2ccccc2c1)C1OC(=O)c2ccccc21 (stereo unspecified) | 45.1 | 31.1 | 13.4 | 11.2 µM | 30.2 | 20.9 | 33.9 | – | – | – | – | – | – | – | – | – | – | – | – | –
COC(=O)C12C3C4C1C1C2C3C41C(=O)OC(C)(C)C (stereo unspecified) | > 100 | > 61.2 | > 100 | > 100 µM | > 100 | > 100 | 44.1 | – | – | – | – | – | – | – | – | – | – | – | – | –
O=C1CCCC/C(=C/c2ccccc2)N1 | > 100 | > 100 | > 100 | > 100 µM | > 100 | > 100 | > 100 | – | – | – | – | – | – | – | – | – | – | – | – | –
O=C(O/N=C1/CCCC/C1=C\c1ccccc1)c1ccccc1 | > 100 | 88.8 | 49 | > 100 µM | 40.2 | – | > 100 | – | – | – | – | – | – | – | – | – | – | – | – | –
CC(C)(C)[SiH]12(OC(C(F)(F)F)(C(F)(F)F)c3ccccc31)OC(C(F)(F)F)(C(F)(F)F)c1ccccc12 | – | – | 5.41 | 6.54 µM | – | 6.68 | 6.38 | – | – | – | – | – | – | – | – | – | – | – | – | –
S=C(N/N=C/c1ccco1)NC12CC3CC(CC(C3)C1)C2 | > 100 | > 100 | > 100 | > 100 µM | – | > 100 | – | – | – | – | – | – | – | – | – | – | – | – | – | –
